One assay concerns the target PHD2 (EGLN1) (Homo sapiens (Human), UniProt Q9GZT9). As to the kind of experiment: HIF-PH assay (14CO2 capture), PHD2 enzyme inhibition. The assay is classed as biochemical. The conditions noted are these: Table 1; individual measurement; read-out: IC50 (μM) PHD2. The text has this:
(§1) Ketoglutaric acid α-[1-^14C]-sodium salt, alpha-ketoglutaric acid sodium salt, and HPLC purified peptide may be obtained from commercial sources, e.g., Perkin-Elmer (Wellesley Mass.), Sigma-Aldrich, and SynPep Corp. (Dublin Calif.), respectively. Peptides for use in the assay may be fragments of HIFα as described above or as disclosed in International Publication WO 2005/118836, incorporated by reference herein. HIF-pH, e.g., PHD1 (EGLN2) or PHD2 (EGLN1), can be expressed in, e.g., insect Hi5 cells, and partially purified, e.g., through a SP ion exchange chromatography column. Enzyme activity is determined by capturing ^14CO2 using an assay described by Kivirikko and Myllyla (1982, Methods Enzymol. 82:245-304). Assay reactions contain 50 mM HEPES (pH 7.4), 100 μM α-ketoglutaric acid sodium salt, 0.30 mCi/mL ketoglutaric acid α-[1-^14C]-sodium salt, 40 μM FeSO4, 1 mM ascorbate, 1541.8 units/mL Catalase, with or without 50 μM peptide substrate and various concentrations of compound of the invention. Reactions are initiated by addition of HIF-PH enzyme.
(§2) The peptide-dependent percent turnover is calculated by subtracting percent turnover in the absence of peptide from percent turnover in the presence of substrate peptide. Percent inhibition and IC50 are calculated using peptide-dependent percent turnover at given inhibitor concentrations. Calculation of IC50 values for each inhibitor is conducted using GraFit software (Erithacus Software Ltd., Surrey UK).
(§3) The PHD2/PHD1 is the ratio of the IC50 of the compound for each enzyme.

The next assay addresses PHD1 (EGLN2) (Homo sapiens (Human), UniProt Q96KS0). Put plainly: HIF-PH assay (14CO2 capture), PHD1 enzyme inhibition. The assay is classed as biochemical. Particulars: Table 1; for IC50: individual measurement, read-out: IC50 (μM) PHD1; for PHD2/PHD1: ratio of the IC50 of the compound for each enzyme.
Description: as §1, §2, §3

Sequence of PHD1 (EGLN2) (Q96KS0 whole entry): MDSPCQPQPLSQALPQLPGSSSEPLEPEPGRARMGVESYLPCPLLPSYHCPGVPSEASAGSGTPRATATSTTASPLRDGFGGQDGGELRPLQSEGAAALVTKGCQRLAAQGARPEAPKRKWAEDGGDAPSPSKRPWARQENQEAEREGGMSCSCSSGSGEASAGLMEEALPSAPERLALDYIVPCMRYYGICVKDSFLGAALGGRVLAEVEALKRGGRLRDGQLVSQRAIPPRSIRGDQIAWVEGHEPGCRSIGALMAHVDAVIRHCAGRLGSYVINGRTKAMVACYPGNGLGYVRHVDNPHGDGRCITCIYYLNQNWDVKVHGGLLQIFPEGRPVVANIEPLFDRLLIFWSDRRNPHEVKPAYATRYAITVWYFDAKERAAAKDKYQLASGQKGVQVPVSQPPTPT
Sequence of PHD2 (EGLN1) (Q9GZT9 whole entry, the tested form may be a part): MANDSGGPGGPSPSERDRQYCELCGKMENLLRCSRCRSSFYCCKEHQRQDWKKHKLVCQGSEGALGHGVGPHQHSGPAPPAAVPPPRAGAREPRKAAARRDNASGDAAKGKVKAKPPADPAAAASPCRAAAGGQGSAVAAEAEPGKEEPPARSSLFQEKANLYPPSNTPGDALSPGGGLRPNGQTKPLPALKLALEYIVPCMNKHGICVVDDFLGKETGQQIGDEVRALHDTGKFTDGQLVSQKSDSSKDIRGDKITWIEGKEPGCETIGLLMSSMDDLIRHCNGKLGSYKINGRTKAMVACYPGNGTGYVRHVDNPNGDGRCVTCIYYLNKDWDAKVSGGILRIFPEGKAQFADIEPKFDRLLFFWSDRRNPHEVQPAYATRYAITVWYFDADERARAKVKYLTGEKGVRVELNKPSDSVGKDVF

Regarding `N#Cc1nc(C(=O)NC[C@H](N)C(=O)O)c(O)c2ccc(Oc3ccccc3)cc12` [Compound 86, 2-(S)-Amino-3-[(1-cyano-4-hydroxy-7-phenoxy-isoquinoline-3-carbonyl)-amino]-propionic acid], the IC50 (usually the concentration that inhibits the measured activity by half) on PHD2 (EGLN1) came to 51.9 µM. Besides, at PHD1 (EGLN2), the IC50 was found to be 2.51 µM and the PHD2/PHD1 worked out at 21.

Regarding `O=C(O)CCCCNC(=O)c1ncc2cc(Nc3ccccc3)ccc2c1O` [Compound 124, 5-[(4-Hydroxy-7-phenylamino-isoquinoline-3-carbonyl)-amino]-pentanoic acid], at PHD2 (EGLN1), the IC50 was found to be 200 µM. Moreover, on PHD1 (EGLN2), the IC50 is 25.4 µM and the PHD2/PHD1 was found to be 8.

`N#Cc1nc(C(=O)NC2(CC(=O)O)CCCCC2)c(O)c2ccc(Oc3ccccc3)cc12` [Compound 90, {1-[(1-Cyano-4-hydroxy-7-phenoxy-isoquinoline-3-carbonyl)-amino]-cyclohexyl}-acetic acid]: on PHD2 (EGLN1), the half-inhibitory concentration (IC50) worked out at 56.3 µM. In addition, on PHD1 (EGLN2), the IC50 was 7.32 µM and the PHD2/PHD1 was found to be 8.

On to `N#Cc1nc(C(=O)NCCC[C@H](N)C(=O)O)c(O)c2ccc(Oc3ccccc3)cc12.O=C(O)C(F)(F)F` [Compound 163, (S)-2-[Amino-5-(1-cyano-4-hydroxy-7-phenoxy-isoquinoline-3-carbonyl)-amino]-pentanoic acid 2,2,2-trifluoroacetic acid (1:1)], for which the IC50 on PHD2 (EGLN1) was > 200 µM. At PHD1 (EGLN2), the IC50 was found to be 43.6 µM and the PHD2/PHD1 amounted to 5.

`N#Cc1nc(C(=O)NCC2(C(=O)O)CCS(=O)(=O)CC2)c(O)c2ccc(Oc3ccccc3)cc12` [Compound 29, 4-{[(1-Cyano-4-hydroxy-7-phenoxy-isoquinoline-3-carbonyl)-amino]-methyl}-1,1-dioxo-hexahydro-1λ^6-thiopyran-4-carboxylic acid]: the IC50 was 37.3 µM on PHD2 (EGLN1) and 3.76 µM at PHD1 (EGLN2). For the same molecule, the PHD2/PHD1 on PHD1 (EGLN2) is on record as 9.9.

`N#Cc1nc(C(=O)NC[C@H](Cc2ccccc2)C(=O)O)c(O)c2ccc(Oc3ccccc3)cc12` [Compound 49, (S)-2-Benzyl-3-[(1-cyano-4-hydroxy-7-phenoxy-isoquinoline-3-carbonyl)-amino]-propionic acid]: the IC50 on PHD2 (EGLN1) is 23.9 µM. In addition, on PHD1 (EGLN2), the IC50 stood at 1.66 µM and the PHD2/PHD1 was 14.

As for `O=C(O)CCNC(=O)c1ncc2cc(NC(=O)NC3CCCCC3)ccc2c1O` [Compound 130, 3-{[7-(3-Cyclohexyl-ureido)-4-hydroxy-isoquinoline-3-carbonyl]-amino}-propionic acid], the IC50 at PHD2 (EGLN1) stood at 39.6 µM. Further, on PHD1 (EGLN2), the IC50 came to 4.91 µM and the PHD2/PHD1 is recorded as 8.

Take `CC(C)(C)OC(=O)N1CCC(CC(=O)O)(NC(=O)c2nc(C#N)c3cc(Oc4ccccc4)ccc3c2O)CC1` [Compound 96, 4-Carboxymethyl-4-[(1-cyano-4-hydroxy-7-phenoxy-isoquinoline-3-carbonyl)-amino]-piperidine-1-carboxylic acid tert-butyl ester]: the IC50 at PHD2 (EGLN1) came out at 158 µM. Further, at PHD1 (EGLN2), the IC50 was found to be 11.3 µM and the PHD2/PHD1 came out at 14.

`CC(C)(CNC(=O)c1nc(C#N)c2cc(CCc3ccccc3)ccc2c1O)C(=O)O` [Compound 122, 3-[(1-Cyano-4-hydroxy-7-phenethyl-isoquinoline-3-carbonyl)-amino]-2,2-dimethyl-propionic acid]: the IC50 at PHD2 (EGLN1) worked out at 29.3 µM. At PHD1 (EGLN2), the IC50 came out at 2.57 µM and the PHD2/PHD1 worked out at 11.

Turning to `N#Cc1nc(C(=O)N[C@@H](CC(=O)O)c2ccccc2F)c(O)c2ccc(Oc3ccccc3)cc12` [Compound 170, 3-(S)-[(1-Cyano-4-hydroxy-7-phenoxy-isoquinoline-3-carbonyl)-amino]-3-(2-fluoro-phenyl)-propionic acid], the IC50 at PHD2 (EGLN1) was 32.2 µM. Moreover, on PHD1 (EGLN2), the IC50 turned out to be 2.76 µM and the PHD2/PHD1 is given as 12.

As for `CC(C)(CNC(=O)c1nc(C#N)c2cc(OCc3ccccc3)ccc2c1O)C(=O)O` [Compound 153, 3-[(7-Benzyloxy-1-cyano-4-hydroxy-isoquinoline-3-carbonyl)-amino]-2,2-dimethyl-propionic acid], the 50% inhibitory concentration (IC50) on PHD2 (EGLN1) is 30.5 µM. Besides, on PHD1 (EGLN2), the IC50 was determined as 2.58 µM and the PHD2/PHD1 is 12.

Take `CC[C@H](CC(=O)O)NC(=O)c1nc(C#N)c2cc(Oc3ccccc3)ccc2c1O` [Compound 63, 3-(R)-[(1-Cyano-4-hydroxy-7-phenoxy-isoquinoline-3-carbonyl)-amino]-pentanoic acid]: the IC50 at PHD2 (EGLN1) was 26.9 µM; on PHD1 (EGLN2), 2.82 µM. The PHD2/PHD1 on PHD1 (EGLN2) amounted to 10.

Turning to `Cc1ccccc1[C@H](CC(=O)O)NC(=O)c1nc(C#N)c2cc(Oc3ccccc3)ccc2c1O` [Compound 171, 3-(S)-[(1-Cyano-4-hydroxy-7-phenoxy-isoquinoline-3-carbonyl)-amino]-3-o-tolyl-propionic acid], on PHD2 (EGLN1), the IC50 came out at 45.7 µM. For the same molecule, at PHD1 (EGLN2), the IC50 came to 5.26 µM and the PHD2/PHD1 is 9.

Regarding `N#Cc1nc(C(=O)NCC(O)C(=O)O)c(O)c2ccc(Oc3ccccc3)cc12` (stereo not drawn) [Compound 76, 3-[(1-Cyano-4-hydroxy-7-phenoxy-isoquinoline-3-carbonyl)-amino]-2-hydroxy-propionic acid], the IC50 at PHD2 (EGLN1) stood at 2.86 µM. At PHD1 (EGLN2), the IC50 was found to be 0.16 µM and the PHD2/PHD1 worked out at 18.

For the molecule `O=C(O)CCNC(=O)c1nc(C(F)(F)F)c2cc(Oc3ccccc3)ccc2c1O` [Compound 145, 3-[(4-Hydroxy-7-phenoxy-1-trifluoromethyl-isoquinoline-3-carbonyl)-amino]-propionic acid], the IC50 at PHD2 (EGLN1) was 101 µM. Further, on PHD1 (EGLN2), the IC50 amounted to 18.6 µM and the PHD2/PHD1 worked out at 5.

Turning to `N#Cc1nc(C(=O)NCCC(=O)O)c(O)c2ccc(-c3ccccc3)cc12` [Compound 137, 3-[(1-Cyano-4-hydroxy-7-phenyl-isoquinoline-3-carbonyl)-amino]-propionic acid], the IC50 on PHD2 (EGLN1) stood at 3.67 µM; at PHD1 (EGLN2) it was 0.61 µM. Also, the PHD2/PHD1 on PHD1 (EGLN2) turned out to be 6.

Regarding `CC(C)(CNC(=O)c1ncc2cc(Oc3ccccc3)ccc2c1O)C(=O)O` [Compound 2, 3-[(4-Hydroxy-7-phenoxy-isoquinoline-3-carbonyl)-amino]-2,2-dimethyl-propionic acid], the IC50 at PHD2 (EGLN1) was 46.7 µM. On PHD1 (EGLN2), the IC50 amounted to 5.5 µM and the PHD2/PHD1 is given as 8.

Take `O=C(O)CCCNC(=O)c1ncc2cc(-c3ccc(F)cc3)ccc2c1O` [Compound 148, 4-{[7-(4-Fluoro-phenyl)-4-hydroxy-isoquinoline-3-carbonyl]-amino}-butyric acid]: the IC50 on PHD2 (EGLN1) was found to be 24.5 µM. In addition, on PHD1 (EGLN2), the IC50 turned out to be 2.88 µM and the PHD2/PHD1 was 9.

As for `N#Cc1nc(C(=O)NCC(C(=O)O)C2CC2)c(O)c2ccc(Oc3ccc(F)cc3)cc12` (stereo not drawn) [Compound 179, 3{-[1-Cyano-7-(4-fluoro-phenoxy)-4-hydroxy-isoquinoline-3-carbonyl]-amino}-2-cyclopropyl-propionic acid], the IC50 on PHD2 (EGLN1) is 8.54 µM. Also, on PHD1 (EGLN2), the IC50 was found to be 0.95 µM and the PHD2/PHD1 is on record as 9.

Take `O=C(NCC1(C(=O)O)CCOCC1)c1ncc2cc(Oc3ccccc3)ccc2c1O` [Compound 15, 4-{[(4-Hydroxy-7-phenoxy-isoquinoline-3-carbonyl)-amino]-methyl}-tetrahydro-pyran-4-carboxylic acid]: the IC50 at PHD2 (EGLN1) came to 51.5 µM. For the same molecule, at PHD1 (EGLN2), the IC50 amounted to 9.71 µM and the PHD2/PHD1 amounted to 5.

For `CC(C)(CNC(=O)c1ncc2cc(-c3ccc(F)cc3)ccc2c1O)C(=O)O` [Compound 150, 3-{[7-(4-Fluoro-phenyl)-4-hydroxy-isoquinoline-3-carbonyl]-amino}-2,2-dimethyl-propionic acid], the IC50 came out at 114 µM at PHD2 (EGLN1) and 22.9 µM at PHD1 (EGLN2). Further, the PHD2/PHD1 on PHD1 (EGLN2) came to 5.

With `CO[C@@H](CCNC(=O)c1nc(C#N)c2cc(Oc3ccccc3)ccc2c1O)C(=O)O` [Compound 94, 4-[(1-Cyano-4-hydroxy-7-phenoxy-isoquinoline-3-carbonyl)-amino]-2-(S)-methoxy-butyric acid], on PHD2 (EGLN1), the IC50 is 2.18 µM. In addition, on PHD1 (EGLN2), the IC50 worked out at 0.31 µM and the PHD2/PHD1 came to 7.

Regarding `O=C(O)CCCCNC(=O)c1nc(-c2cncc(F)c2)c2cc(Oc3ccccc3)ccc2c1O` [Compound 147, 5-{[1-(5-Fluoro-pyridin-3-yl)-4-hydroxy-7-phenoxy-isoquinoline-3-carbonyl]-amino}-pentanoic acid], at PHD2 (EGLN1), the IC50 came out at 77 µM. In addition, on PHD1 (EGLN2), the IC50 is 5.09 µM and the PHD2/PHD1 turned out to be 15.

Regarding `C[C@H](NC(=O)c1nc(C#N)c2cc(Oc3ccccc3)ccc2c1O)[C@H](C)C(=O)O` [Compound 71, (2S,3S)-3-[(1-Cyano-4-hydroxy-7-phenoxy-isoquinoline-3-carbonyl)-amino]-2-methyl-butyric acid], the IC50 at PHD2 (EGLN1) came to 107 µM. In addition, at PHD1 (EGLN2), the IC50 was found to be 2.77 µM and the PHD2/PHD1 is recorded as 39.

Source of the values: patent publication US9409892B2, “4-hydroxy-isoquinoline compounds as HIF hydroxylase inhibitors” (FIBROGEN, INC., priority 2012, dated 2016).
